Experimental data reported in US6790855B2 (priority 2000, dated 2004).
Counter-ions that a name gives are not always drawn.

Experiments:
[1] = test system: mice; assay: radiant heat tailflick assay after topical administration (tail immersed in DMSO drug solution); format: in vivo; details: for Opioid ED50 Value: opioid alone or opioid component of fixed-ratio combination; for response reached in dose-response curve: tested immediately; for response reached in dose-response curve / analgesic activity in words: FIG. 2; for analgesic activity in words: dose-response; for analgesic response: constant concentration, FIG. 1a; for peak response: fixed low dose: morphine 1.5 mM, lidocaine 0.9 mM, alone or both together, FIG. 3a
[2] = test system: subject's finger; assay: radiant light heat source finger latency after topical gel application; format: in vivo, human; details: Lidocaine alone 0.125 mg/ml or morphine alone 0.25 mg/ml gel, FIG. 7
[3] = as an analgesic and as a respiratory depressant; cited from earlier work
[4] = topical, increasing concentrations, 2 minutes, FIG. 4
[5] = 2 minutes exposure, listed as free base of lidocaine

CN1CC[C@]23CCCC[C@H]2[C@H]1Cc1ccc(O)cc13 [Levorphanol]
ED50 [1, 4]: 5000 µM | analgesic response in words [1, 4]: full analgesic responses | Opioid ED50 Value ([1]; topical, tailflick): 5000 µM

CCN(CC)CC(=O)Nc1c(C)cccc1C [Lidocaine HCl]
response reached in dose-response curve ([1]; 2 minutes exposure, HCl): 50-60% | analgesic activity in words ([1]; 2 minutes exposure, HCl): less effective

CCN(CC)CC(=O)Nc1c(C)cccc1C [Lidocaine]
change in latency compared to baseline, in words [2]: Neither morphine nor Lidocaine produced appreciable changes in latency | response reached in dose-response curve [1, 5]: 75% | time of decrease to baseline levels ([1]; 2 minutes exposure, time action curve over 30 minutes, FIG. 1b): ≤ 20 min | analgesic response ([1]; exposure 30 seconds): 20% | analgesic response ([1]; exposure 2 minutes): 70% | analgesic activity in words [1, 5]: biphasic dose-response curve | peak response [1]: 20% | Shift ([1]; lidocaine ED50, + morphine 3.0 mM vs alone): 3.1 | Shift ([1]; lidocaine ED50, + morphine 4.5 mM vs alone): 3.6 | Shift ([1]; mouse, in vivo): 2.5 | ED50 ([1]; topical lidocaine + morphine 1.5 mM): 1000 µM | ED50 ([1]; topical lidocaine + morphine 3.0 mM): 800 µM | ED50 ([1]; topical lidocaine + morphine 4.5 mM): 700 µM | ED50 ([1]; topical, drug alone): 2500 µM | Lidocaine ED50 Value ([1]; topical, tailflick, lidocaine alone (initial portion of curve) or lidocaine component of fixed-ratio combination): 2500 µM

CN1CC[C@]23c4c5ccc(O)c4O[C@H]2[C@@H](O)C=C[C@H]3[C@H]1C5 [Morphine]
change in latency compared to baseline, in words [2]: Neither morphine nor Lidocaine produced appreciable changes in latency | analgesic activity in words ([1]; 2 minutes exposure): intermediate potency between the two forms of lidocaine | peak response [1]: 20% | Shift ([1]; morphine ED50, + lidocaine 0.45 mM vs alone): 1.7 | Shift ([1]; morphine ED50, + lidocaine 0.9 mM vs alone): 4.1 | Shift ([1]; morphine ED50, + lidocaine 1.8 mM vs alone): 4.7 | ED50 ([1]; topical morphine + lidocaine 0.45 mM): 3600 µM | ED50 ([1]; topical morphine + lidocaine 0.9 mM): 1500 µM | ED50 ([1]; topical morphine + lidocaine 1.8 mM): 1300 µM | ED50 ([1]; topical, drug alone): 6100 µM | Opioid ED50 Value ([1]; topical, tailflick): 6100 µM

COc1ccc2c3c1O[C@H]1[C@@H](O)C=C[C@H]4[C@@H](C2)N(C)CC[C@@]341 [codeine]
effectiveness orally relative to parenterally [3]: approximately 60%
